Legend:
[1] = Dissolution of the compound together with gastrodin in the preparation tank; assay type: physicochemical; conditions: amounts per formula of the example; with gastrodin in water for injection kept at 80 °C, vacuum, nitrogen gas
Protocol: heating water for injection to 80-98 °C, followed by stirring under vacuum conditions at 30-80 °C, and then adding the reactant under the protection of nitrogen gas or argon gas to obtain a solution of the reactant.
60% of the total amount of water for injection for preparation was added into a preparation tank, heated to 95 °C with slight boiling, and kept at 80 °C. The vacuum was initiated while stirring for 10 minutes, followed by bringing breviscapine along with gastrodin and sodium carbonate weighed according to the amounts in the formula by nitrogen gas into the preparation tank. […] Next, it is sterile-filtered, sterile-filled and freeze-dried by a conventional process to obtain the freeze-dried powder for injection.

[2] = Maximum tolerance dose of gastrodin calculated from intramuscular and intravenous injection in animals; assay type: in vivo, human; conditions: calculated at 60 kg from maximum tolerance dose of intramuscular and intravenous injection for animals
Protocol: Gastrodin is a white crystalline powder, odorless, bitter taste; melting point: 153 °C~156 °C; easily soluble in water or methanol and soluble in ethanol. Gastrodin has sedative, hypnotic and analgesic effects, and has low toxicity. It can be calculated from the maximum tolerance dose of intramuscular injection and intravenous injection for animals that the maximum tolerance dose for human is 33.249 g of gastrodin (calculated at 60 kg).

time in which the compound dissolved in the preparation tank [1]	Compound	maximum tolerance dose for human [2]
about 5 minutes	OC[C@H]1O[C@@H](Oc2cc(/C=C/c3cc(O)cc(O)c3)ccc2O)[C@H](O)[C@@H](O)[C@@H]1O	–
about 5 minutes	CC(=O)Cc1cc(=O)c2c(C)cc(O)c([C@@H]3O[C@H](CO)[C@@H](O)[C@H](O)[C@H]3O)c2o1 [Aloesin]	–
about 5 minutes	O=c1cc(-c2ccccc2)oc2cc(O)c(O)c(O)c12 [Baicalein]	–
about 5 minutes	O=C(O)[C@H]1O[C@@H](Oc2cc3oc(-c4ccccc4)cc(=O)c3c(O)c2O)[C@H](O)[C@@H](O)[C@@H]1O [Baicalin]	–
about 5 minutes	O=C1c2c(O)cccc2C([C@@H]2O[C@H](CO)[C@@H](O)[C@H](O)[C@H]2O)c2cc(CO)cc(O)c21 (some centres unmarked) [Barbaloin]	–
about 5 minutes	COc1c(O)cc2c(c1O)[C@@H]1O[C@H](CO)[C@@H](O)[C@H](O)[C@H]1OC2=O [Bergenin]	–
about 5 minutes	O=c1c(-c2ccc(O)cc2)coc2cc(O)ccc12 [Daidzein]	–
about 5 minutes	COc1ccc(/C=C/c2cc(O)cc(O[C@@H]3O[C@H](CO)[C@@H](O)[C@H](O)[C@H]3O)c2)cc1 [Deoxyrhapontin]	–
about 5 minutes	O=C1CC(c2ccccc2)Oc2cc(O)c(O)c(O)c21 (centres unmarked) [Dihydrobaicalein]	–
–	OCc1ccc(O[C@@H]2O[C@H](CO)[C@@H](O)[C@H](O)[C@H]2O)cc1 [Gastrodin, 4-hydroxymethylphenyl-β-D-glucopyranoside hemihydrate]	33.249 g
about 5 minutes	COc1ccc([C@@H]2CC(=O)c3c(O)cc(O)cc3O2)cc1O [Hesperetin]	–
about 5 minutes	O=c1cc(-c2ccc(O)c(O)c2)oc2cc(O)c([C@@H]3O[C@H](CO)[C@@H](O)[C@H](O)[C@H]3O)c(O)c12 [Homoorientin]	–
about 5 minutes	COc1ccc(-c2oc3cc(O)cc(O)c3c(=O)c2O)cc1 [Kaempferide]	–
about 5 minutes	Oc1ccc2c(c1)OC[C@H]1c3cc4c(cc3O[C@@H]21)OCO4 [Maackiain]	–
about 5 minutes	O=C1C[C@@H](c2ccc(O)cc2)Oc2cc(O)cc(O)c21 [Naringenin]	–
about 5 minutes	OC[C@H]1O[C@@H](Oc2cc(O)cc(/C=C/c3ccc(O)cc3)c2)[C@H](O)[C@@H](O)[C@@H]1O [Polydatin]	–
about 5 minutes	O=c1c(-c2ccc(O)cc2)coc2c([C@@H]3O[C@H](CO)[C@@H](O)[C@H](O)[C@H]3O)c(O)ccc12 [Puerarin]	–
about 5 minutes	O=c1c(O)c(-c2ccc(O)c(O)c2)oc2cc(O)cc(O)c12 [Quercetin]	–
about 5 minutes	Oc1ccc(C=Cc2cc(O)cc(O)c2)cc1 [Resveratrol]	–
about 5 minutes	COc1ccc(/C=C/c2cc(O)cc(O[C@@H]3O[C@H](CO)[C@@H](O)[C@H](O)[C@H]3O)c2)cc1O [Rhapontin]	–

Compound	time in which the compound dissolved in the preparation tank [1]	maximum tolerance dose for human [2]
O=c1c(-c2ccc(O)cc2)coc2cc(O[C@@H]3O[C@H](CO)[C@@H](O)[C@H](O)[C@H]3O)ccc12 [Daidzin]	about 5 minutes	–
Breviscapine	about 5 minutes	–
Taxinine	about 5 minutes	–

From patent EP2832371B1, “APPLICATION OF GASTRODIN AS SOLUBILIZER AND METHOD FOR PREPARING INJECTION OR POWDER FOR INJECTION” (KPC Pharmaceuticals, Inc., priority 2012, dated 2013)
